In assay [1] the test system is Mus musculus. Kind of assay: In vivo antidepressant activity assessed by prevention of tetrabenazine-induced ptosis in mice following i.p. administration. The class given is functional.
Assay [2] has as its system Mus musculus. Kind of assay: Inhibition of pentylenetetrazole lethality in mice (po). The class given is functional.
Assay [3] has as its system Mus musculus. Kind of assay: Prevention of amphetamine aggregation toxicity in mice (po). The class given is functional.
Assay [4] deals with Rattus norvegicus. Kind of assay: Potentiation of 5-HT induced behavioral syndrome in pargyline-pretreated rats (ip). Format: functional.
The subject of assay [5] is Mus musculus. Kind of assay: Prevention of tetrabenazine-induced ptosis in mice (ip). The class given is functional.
Assay [6] is filed under the species Mus musculus. Kind of assay: Compound was tested for physostigmine lethality in mouse. Format: functional.
Assay [7] concerns Mus musculus. Kind of assay: Compound was tested in vivo for antagonism of oxotremorine induced -tremors in mouse. The class given is functional.
For assay [8], the system named is Mus musculus. Kind of assay: Compound was tested in vivo for antagonism of oxotremorine induced salivation in mouse. The class given is functional.
The test system of assay [9] is Mus musculus. Kind of assay: Compound was tested in vivo for potential antidepressant activity which was assessed by its prevention of tetrabenazine-induced ptosis in mice. Format: functional.
Assay [10] concerns Mus musculus. As to the kind of experiment: In vivo for the inhibition of potentiation of yohimbine -induced toxicity in mouse. Format: functional.
Assay [11] is described as follows: Compound was tested in vitro for its ability to displace [3H]quinuclidine benzylate (QNB) from Muscarinic acetylcholine receptor on rat whole brain membranes. Format: cell membranes.
The species entered for assay [12] is Rattus norvegicus. Kind of assay: In vitro inhibition against neuronal uptake of dopamine in striatum. Format: functional.
For assay [13], the species on record is Rattus norvegicus. Kind of assay: In vitro inhibition against neuronal uptake of norepinephrine in whole brain. Format: functional.
Assay [14] is filed under the species Rattus norvegicus. Kind of assay: In vitro inhibition against neuronal uptake of serotonin in whole brain. The class given is functional.
Assay [15] has as its system Rattus norvegicus. As to the kind of experiment: Compound was screened in vivo for antidepressant activity by 5 HTP potentiation method in rat. Format: functional.
The subject of assay [16] is Mus musculus. Kind of assay: In vivo inhibition of potentiation of yohimbine -induced toxicity in mouse. Format: functional.
The test system of assay [17] is Rattus norvegicus. As to the kind of experiment: In vivo effective dose for intraperitoneal administration required for the muricidal activity was determined in rat. The note with it: ip. Format: functional.
The species entered for assay [18] is Rattus norvegicus. Kind of assay: In vitro inhibition against neuronal uptake of dopamine in rat striatum. Format: functional.
The species entered for assay [19] is Rattus norvegicus. As to the kind of experiment: In vitro inhibition against neuronal uptake of norepinephrine in rat hypothalamus. The class given is functional.
The species named for assay [20] is Rattus norvegicus. As to the kind of experiment: In vitro inhibition against neuronal uptake of norepinephrine in rat whole brain. The class given is functional.
For assay [21], the system named is Rattus norvegicus. Kind of assay: Compound was screened in vivo for antidepressant activity by 5 HTP potentiation method in rat. Format: functional.
The subject of assay [22] is Rattus norvegicus. As to the kind of experiment: Compound was screened in vivo for antidepressant activity by tryptamine seizure potentiation method in rat. Format: functional.
Assay [23] has as its system Rattus norvegicus. As to the kind of experiment: Compound was tested for beta -adrenergic sensitivity when administered to rats at 10 mg/kg, perorally, twice daily for 10 days. The class given is functional. The following applies: 240 h, route oral.
In assay [24] the test system is Rattus norvegicus. As to the kind of experiment: In vivo for the inhibition of muricidal activity. The effective dose (intraperitoneally) required for the activity was determined in rat. The class given is functional. The note with it: ip.
Assay [25] relates to Rattus norvegicus. As to the kind of experiment: Compound was tested in vitro for beta -adrenergic sensitivity and administered to rats at 10 mg/kg, perorally, twice daily for 10 days. The class given is functional. The following applies: 240 h, route oral.
Where [26] appears, read: Mus musculus, ip, read-out: ED50.

SMILES strings stand for the structures.

For orientation: ED50 means the midpoint of the dose-response relation. As to `c1ccc(C2=NC(c3ccccc3)Cc3ccccc3N2)cc1` (stereo not given), the ED50 with Mus musculus [1] (setting [26]) is > 20 mg/kg.
Still for that read-out and setting: with `CCCN1C(C)=Nc2ccccc2CC1c1ccccc1` (stereo not given) the figure was > 5 mg/kg; with `CCC1=Nc2ccccc2CC(c2ccccc2)N1C` (stereo not given), 0.6 mg/kg.
On the same count and under the same terms, with `CN1C(c2ccccc2)=Nc2ccccc2CC1c1ccccc1` (stereo not given) the figure was > 20 mg/kg.
Still for that read-out and setting: next, `CC1=NC(c2ccccc2)Cc2ccccc2N1c1ccccc1` (stereo not given): > 20 mg/kg; `CC1=NC(c2ccccc2)Cc2ccccc2N1C` (stereo not given): > 20 mg/kg; `CC1=Nc2ccccc2CC(c2ccccc2)N1CC1CCCCC1` (stereo not given): ~20 mg/kg.
`CC1=Nc2ccccc2CC(c2ccccc2)N1Cc1ccccc1` (stereo not given): the ED50 with Mus musculus [1] (setting [26]) was > 20 mg/kg.
Still for that read-out and setting: next, `c1ccc(C2Cc3ccccc3NC(C3CC3)=N2)cc1` (stereo not given): > 20 mg/kg.
For `CNC(Cc1ccccc1[N+](=O)[O-])c1ccccc1` (stereo not given), the figures for the ED50 in the assay on Mus musculus [2], in the assay on Mus musculus [3] and in the assay with Rattus norvegicus [4] were > 40 mg/kg, > 20 mg/kg and > 10 mg/kg, respectively.
Turning to `CC(=O)C(Cc1ccccc1NCN1C(=O)CCC1=O)c1ccccc1` (stereo not given), the ED50 with Mus musculus [2] is > 40 mg/kg; with Mus musculus [5] it was > 20 mg/kg; with Mus musculus [3], > 20 mg/kg; with Rattus norvegicus [4] it was > 10 mg/kg.
Consider `CN1C=Nc2ccccc2CC1c1ccccc1` (stereo not given), for which the ED50 in the assay with Mus musculus [1] (setting [26]) is 9.7 mg/kg.
Same read-out and setting: with `CCN1C(C)=Nc2ccccc2CC1c1ccccc1` (stereo not given) the figure was ~20 mg/kg; with `C1=NC(c2ccccc2)Cc2ccccc2N1` (stereo not given), ~20 mg/kg.
On the same count and under the same terms, with `CCCC1=Nc2ccccc2CC(c2ccccc2)N1C` (stereo not given) the figure was > 20 mg/kg; with `CCC1=NC(c2ccccc2)Cc2ccccc2N1` (stereo not given), > 5 mg/kg; with `CC1=NC(c2ccccc2)Cc2ccccc2N1` (stereo not given), > 20 mg/kg.
Still for that read-out and setting: with `CN1C(C2CC2)=Nc2ccccc2CC1c1ccccc1` (stereo not given) the figure was > 20 mg/kg.
As usually defined, the IC50 is the concentration needed to halve the response being measured. Low values mean greater potency, high ones weaker potency. Turning to `CN(C)CCC=C1c2ccccc2CCc2ccccc21` [AMITRIPTYLINE], the ED50 in the assay filed under Mus musculus [6] is 9.6 mg/kg; in the assay on Mus musculus [7], 1.3 mg/kg; in the assay on Mus musculus [8], > 5 mg/kg; with Mus musculus [9] it was 1.9 mg/kg; in the assay with Mus musculus [10], 8 mg/kg; in the assay on Mus musculus [1] (setting [26]), 1.5 mg/kg. For the same compound, the ED50 with Rattus norvegicus [15] was 7.1 mg/kg. The IC50 in assay [11] came out at 3 µM; in the assay filed under Rattus norvegicus [12], 14 µM; in the assay listed under Rattus norvegicus [13], 4.7 µM; in the assay filed under Rattus norvegicus [14], 2 µM.
One may read the inhibition in vivo as the drop in the measured response relative to a control, in per cent. Turning to `CC1=Nc2ccccc2CC(c2ccccc2)N1C.Cl` (stereo not given) [DAZEPINIL HYDROCHLORIDE], the median effective dose (ED50) is > 25 mg/kg with Mus musculus [7]; > 25 mg/kg with Mus musculus [8]; 5.9 mg/kg in the assay with Mus musculus [16]; 2.1 mg/kg with Mus musculus [1]; 1.5 mg/kg with Mus musculus [1] (setting [26]); > 20 mg/kg in the assay with Rattus norvegicus [17]. Moreover, the ED50 was > 10 mg/kg in the assay with Rattus norvegicus [21] and > 25 mg/kg with Rattus norvegicus [22]. The IC50 in the assay filed under Rattus norvegicus [18] came out at 5.3 µM; in the assay listed under Rattus norvegicus [19] it was 0.9 µM; in the assay filed under Rattus norvegicus [20], 1.7 µM; in the assay listed under Rattus norvegicus [14] it was 8.4 µM. The inhibition in vivo at 10 mg/kg with Rattus norvegicus [23] is -44%.
Take `CNCCCN1c2ccccc2CCc2ccccc21` [DESIPRAMINE]: the ED50 in the assay with Rattus norvegicus [24] is 8.2 mg/kg; in the assay on Rattus norvegicus [22], > 25 mg/kg. Further, the inhibition in vivo at 10 mg/kg with Rattus norvegicus [25] is -50%.
